The values below come from publication PMC11473416, “Coumarin-chalcone derivatives as dual NLRP1 and NLRP3 inflammasome inhibitors targeting oxidative stress and inflammation in neurotoxin-induced HMC3 and BE(2)-M17 cell models of Parkinson's disease” (Frontiers in Aging Neuroscience, 2024).

One data set deals with caspase-3. Description: caspase-3 activity assay in MPP^+-treated BE(2)-M17 cells. Type of data set: cell-based, human. The method, then:
BE(2)-M17 cells were plated onto six-well (4 × 10^5/well) and treated with retinoic acid, LM compounds (10 μM), and MPP^+ as described. Cells were collected on day 7 and lysed by six freeze/thaw cycles. Types of substrates applied were: Ac-Tyr-Val-Ala-Asp-7-amino-4-trifluoromethyl coumarin (YVAD-AFC) for caspase-1, Ac-Val-Glu-Ile-Asp-7-amino-4-trifluoromethyl coumarin (VEID-AFC) for caspase-6 (BioVision, Milpitas, CA, USA), and Ac-Asp-Glu-Val-Asp-7-amido-4-methylcoumarin (DEVD-AMC) for caspase-3 (Sigma-Aldrich). The reaction mixtures were incubated for 1.5 h at 37°C per the manufacturer's instructions. The fluorescence intensity at 400 nm excitation and 505 nm emission (caspase-1 and caspase-6) or 360 nm excitation and 460 nm emission (caspase-3) wavelengths were recorded (BioTek FLx800).

For data set [1], the system named is MPP^+-treated BE(2)-M17 cells. Description: cell viability (MTT) in MPP^+-treated BE(2)-M17 cells. Type of data set: cell-based. Conditions: Homo sapiens, read-out: cell viability. The method, then:
To examine neuroprotective potential of LM compounds, BE(2)-M17 cells were plated onto 96-well plate [1 × 10^4/well for cell viability and lactate dehydrogenase (LDH) release assays] or 24-well plate (5 × 10^4/well for ROS assay) with retinoic acid addition (5 μM) on day 1 to initiate neuronal differentiation. On day 5, after removing retinoic acid, cells were pre-treated with LM compounds (1–10 μM) for 8 h, followed by addition of 0.62 mM MPP^+ for 40 h. The cell viability was evaluated by MTT assay as described, and the release of LDH in cell culture medium was measured by using LDH cytotoxicity assay kit (Cayman Chemical). The absorbance was read at 490 nm with Multiskan GO microplate reader (Thermo Fisher Scientific).

The next data set deals with GCLC. Description: Western blot GCLC in MPP^+-treated BE(2)-M17 cells. Type of data set: cell-based, human. Conditions: BE(2)-M17, compound 10 μM + 0.62 mM MPP^+; MPP^+ alone 86%; untreated = 100%. The method, then:
(§1) HMC3 (2 × 10^5/6-well) or BE(2)-M17 (4 × 10^5/6-well) cells were lysed in buffer (composition: 50 mM Tris-HCl pH8.0, 2 mM EDTA pH8.0, 150 mM NaCl, 0.5% sodium deoxycholate, 0.1% SDS, 50 mM NaF, 1% NP40) containing the protease and/or phosphatase inhibitor cocktail (Sigma-Aldrich). After sonication, the lysates were centrifuged (12,000 × g for 10 min at 4°C) and protein concentrations determined (Bradford protein assay; Bio-Rad, Hercules, CA, USA). Aliquots of protein (20 μg) were separated by electrophoresis using 10%−12% SDS–polyacrylamide gel followed by transfer to a polyvinylidene fluoride (PVDF) membrane. After being blocked, the PVDF membrane was stained with NLRP3 (#15101s), caspase-1 (CASP1; #3866s), iNOS (#20609), IL-1β (#12242), CREB (#9192), BCL2-associated X (BAX; #2772; 1:1,000; Cell Signaling), IL-6 (#ab6672), TNF-α (#ab9739), GCLC (#ab41463), BDNF (#ab108319; 1:1,000; Abcam, Cambridge, UK), NLRP1 (#NBP-1-54899; 1:500; Novus Biologicals, Centennial, CO, USA), NRF2 (#ABE413), NQO1 (#N5288), p-CREB (Ser133; #06-519; 1:1,000; Sigma-Aldrich), PGC-1α (#GTX37356; 1:1,000; GeneTex, Irvine, CA, USA), B-cell lymphoma 2 (BCL2; #IR94-392; 1:1,000; iReal Biotechnology, New Taipei City, Taiwan), or glyceraldehyde-3-phosphate dehydrogenase (GAPDH; #30000002; 1:1,000; MDBio, Taipei, Taiwan) primary antibody at room temperature 2 h or 4°C overnight. The immune complexes were detected using horseradish peroxidase (HRP)-conjugated goat anti-mouse or goat anti-rabbit IgG antibody (1:5,000; GeneTex) and chemiluminescent HRP substrate (Millipore, Burlington, MA, USA). Immunoreactive bands were captured (ImageQuant™ LAS 4000, GE Healthcare, Chicago, IL, USA) and quantified (Multi Gauge V3.0 software, Fujifilm, Tokyo, Japan).
(In general: A western blot detects proteins with antibodies after separation by electrophoresis.)

The nature of data set [2]: cytotoxicity MTT assay in HMC3 cells. The format is cell-based, human. Conditions: human, MTT, 1–100 μM, 24 h. As to the method: Human HMC3 microglial (CRL-3304) and neuroblastoma BE(2)-M17 (CRL-2267) cells were obtained from American Type Culture Collection. BE(2)-M17 develops a better dopaminergic phenotype than SH-SY5Y when treated with retinoic acid to direct neuronal differentiation (Carvajal-Oliveros et al., [2022]). Cells were routinely maintained in Dulbecco's Modified Eagle Medium-Nutrient Mixture F12 (DMEM-F12) supplemented with 10% fetal bovine serum (FBS; Thermo Fisher Scientific, Waltham, MA, USA) in a 37°C incubator, with 95% relative humidity and 5% CO2 (NuAire, Plymouth, MN, USA).
To evaluate cytotoxicity of LM compounds and MPP^+, HMC3 (1 × 10^4) or BE(2)-M17 (2 × 10^4) cells were plated on 96-well dishes, grown for 20 h, and treated with LM compounds (1–100 μM) or MPP^+ [HMC3: 0–8 mM; BE(2)-M17: 0–5 mM]. Next day, 20 μl of tetrazolium dye 3-(4,5-dimethylthiazol-2-yl)-2,5-diphenyltetrazolium bromide (MTT, 5 mg/ml; Sigma-Aldrich) was added to the cells at 37°C for 3 h. The resulted insoluble purple formazan products were dissolved by lysis buffer (composition: 10% Triton X-100, 0.1 N HCl, 18% isopropanol). The absorbance of the dissolved product at optical density (OD) 570 nm was read by using a FLx800 fluorescence microplate spectrophotometer (Bio-Tek, Winooski, VT, USA). The half maximal inhibitory concentration (IC50) of LM compounds was determined through the construction of a dose-response curve. MPP^+ at 4 mM (HMC3 cell viability: 65%−69%) or 0.62 mM [BE(2)-M17 cell viability: 79%−84%] was selected to induce inflammation for further experiments.

For a further data set, the system named is NRF2. Description: Western blot NRF2 in MPP^+-treated BE(2)-M17 cells. Type of data set: cell-based, human. Particulars: BE(2)-M17, compound 10 μM + 0.62 mM MPP^+; MPP^+ alone 75%; untreated = 100%. As to the method: as §1
A further data set deals with PGC-1α. The data set can be described thus: Western blot PGC-1α in MPP^+-treated BE(2)-M17 cells. Particulars: BE(2)-M17, compound 10 μM + 0.62 mM MPP^+; MPP^+ alone 75%; untreated = 100%. Type of data set: cell-based, human. The method, then:
as §1

The next data set has as its system BDNF. The data set can be described thus: Western blot BDNF in MPP^+-treated BE(2)-M17 cells. The format is cell-based, human. Conditions: BE(2)-M17, compound 10 μM + 0.62 mM MPP^+; MPP^+ alone 78%; untreated = 100%. As to the method:
HMC3 (2 × 10^5/6-well) or BE(2)-M17 (4 × 10^5/6-well) cells were lysed in buffer (composition: 50 mM Tris-HCl pH8.0, 2 mM EDTA pH8.0, 150 mM NaCl, 0.5% sodium deoxycholate, 0.1% SDS, 50 mM NaF, 1% NP40) containing the protease and/or phosphatase inhibitor cocktail (Sigma-Aldrich). After sonication, the lysates were centrifuged (12,000 × g for 10 min at 4°C) and protein concentrations determined (Bradford protein assay; Bio-Rad, Hercules, CA, USA). Aliquots of protein (20 μg) were separated by electrophoresis using 10%−12% SDS–polyacrylamide gel followed by transfer to a polyvinylidene fluoride (PVDF) membrane. […] The immune complexes were detected using horseradish peroxidase (HRP)-conjugated goat anti-mouse or goat anti-rabbit IgG antibody (1:5,000; GeneTex) and chemiluminescent HRP substrate (Millipore, Burlington, MA, USA). Immunoreactive bands were captured (ImageQuant™ LAS 4000, GE Healthcare, Chicago, IL, USA) and quantified (Multi Gauge V3.0 software, Fujifilm, Tokyo, Japan).

The mark [3] stands for this setting: BE(2)-M17, compound 10 μM + 0.62 mM MPP^+, MPP^+-untreated = 100%.

Like-named read-outs stand apart in the source and are kept apart here.

With `Cc1ccc(/C=C/C(=O)c2c(O)c3ccccc3oc2=O)cc1` [LM-016], the caspase-3 activity with caspase-3 (setting [3]) came to 102%. Also, in data set [1] (retinoic acid-differentiated BE(2)-M17, compound 10 μM 8 h, then 0.62 mM MPP^+ 40 h, MPP^+ alone 81%, untreated = 100%), the viability at 10 µM lay in the range of 95 to 97%. Further, the GCLC level in the data set on GCLC was 99–106%. In addition, the IC50 at 24 h in data set [2] (HMC3 microglial cells) was greater than 100 µM. Also, the NRF2 level with NRF2 is listed as 99–101%. The PGC-1α level in the data set with PGC-1α is listed as 98–109%.
As for `CN(C)c1ccc(/C=C/C(=O)c2c(O)c3ccccc3oc2=O)cc1` [LM-021, (E)-3-(3-(4-(dimethylamino)phenyl)acryloyl)-4-hydroxy-2H-chromen-2-one], the caspase-3 activity with caspase-3 (setting [3]) is given as 101%. In addition, the viability at 10 µM in data set [1] was 95 to 97%. Moreover, the GCLC level in the data set on GCLC is 99–106%. For the same molecule, the BDNF level in the data set on BDNF was 109–110%. For the same molecule, the IC50 in data set [2] was greater than 100 µM. Also, the NRF2 level with NRF2 is given as 99–101%. The PGC-1α level with PGC-1α is 98–109%.
On to `O=C(/C=C/c1ccccc1O)c1c(O)c2ccccc2oc1=O` [LM-036], for which the caspase-3 activity in the data set with caspase-3 (setting [3]) was determined as 101%. Moreover, the viability at 10 µM in data set [1] was in the range of 95 to 97%. In addition, the GCLC level with GCLC is listed as 99–106%. Further, the BDNF level with BDNF is reported as 109–110%. For the same molecule, the IC50 in data set [2] is greater than 100 µM. Further, in the data set with NRF2, the NRF2 level is 99–101%. In addition, the PGC-1α level with PGC-1α was 98–109%.
Turning to `C[n+]1ccc(-c2ccccc2)cc1` [MPP^+, 1-methyl-4-phenyl pyridinium, reference compound], the caspase-3 activity in the data set with caspase-3 (BE(2)-M17, 0.62 mM MPP^+ alone, untreated = 100%) was 114%.

As a reminder, the viability is a read-out of living cells in per cent, often relative to untreated cells. For orientation: IC50 means the concentration that inhibits the measured activity by half. A higher IC50 goes with a need for much substance.
